# From patent publication US8859502B2, “Therapy for MLL-rearranged leukemia” (Celgene Corporation, priority 2010, dated 2014)
# What was measured:
# [1] = tested on: t(4;11)-positive ALL cells; type: cell-based, human; conditions: for therapeutic index and specificity towards t(4;11)-positive ALL cells: SEM, RS4;11, MLL-AF4 patient cells versus normal bone marrows, FIG. 6
# Source text: VPA, D. romidepsin, E. MS-275. Error bars represent standard errors of the mean (SEM).
# [2] = tested on: SEM cell line; assay: Proto-oncogene mRNA expression by quantitative real-time PCR after exposure to HDAC inhibitors, SEM; type: cell-based, human
# Method: (§1) FIGS. 8A, 8B, 8C, 8D, 8E, 8F and 8G show relative proto-oncogene mRNA expression after exposure to HDAC inhibitors in SEM cell line. FIGS. 8AA, 8BB, 8CC, 8DD, 8EE, 8FF and 8GG show relative proto-oncogene mRNA expression after exposure to HDAC inhibitors in RS4;11 cell line. mRNA expression levels of the proto-oncogenes A. RAN, B. SET, C. […] For RUNX1, PARK7, DIAPH1 and HOXA9 data after 24 hours exposure are presented as well (hatch fill). Expression levels in SEM or RS4;11 were set to 100%.
# (§2) Total RNA was reverse transcribed and the obtained cDNA was used to quantify mRNA expression by using quantitative real-time PCR analysis as described in Stam et al., Haematologica 92(11):1565-1568, 2007). […] Per experiment, samples were analyzed in duplicate and all experiments were conducted twice. […]
# (§3) To explore the mechanism of action of HDAC inhibitors on induced leukemic cell death in MLL-rearranged ALL, the t(4;11)-positive ALL cell lines SEM and RS4;11 were exposed to various concentrations of TSA, SAHA, VPA, MS-275 and romidepsin for 6, 24 or 48 hours. During these exposures, cell viability was monitored by trypan blue exclusion (FIG. 7). Quantitative real-time PCR was used to determine the mRNA expression levels of MYC, SET, RUNXI, RAN, HOXA9, DIAPHI and PARK7 in the cell lines SEM and RS4;11 during exposure to the different HDAC inhibitors. […]
# [3] = tested on: RS4;11 cell line; assay: Proto-oncogene mRNA expression by quantitative real-time PCR after exposure to HDAC inhibitors, RS4;11; type: cell-based, human; conditions: RS4;11, mRNA by quantitative real-time PCR
# Method: as §1, §2, §3
# [4] = tested on: healthy hematopoietic bone marrow cells
compound,measurement,setting,value
"C/C=C1\NC(=O)[C@H]2CSSCC/C=C/[C@H](CC(=O)N[C@H](C(C)C)C(=O)N2)OC(=O)[C@H](C(C)C)NC1=O [romidepsin, (1S,4S,7Z,10S,16E,21R)-7-ethylidene-4,21-bis(1-methylethyl)-2-oxa-12,13-dithia-5,8,20,23-tetrazabicyclo[8.7.6]tricos-16-ene-3,6,9,19,22-pentone]",therapeutic index and specificity towards t(4;11)-positive ALL cells,[1],high therapeutic index and a preferred specificity towards targeting t(4;11)-positive ALL cells
O=C(CCCCCCC(=O)Nc1ccccc1)NO [Vorinostat],expression of the selected proto-oncogenes,[2],consistently repressed most of the selected proto-oncogenes
same,expression of the selected proto-oncogenes,[3],consistently repressed most of the selected proto-oncogenes
CC(/C=C/C(=O)NO)=C\[C@@H](C)C(=O)c1ccc(N(C)C)cc1 [trichostatin A],expression of the selected proto-oncogenes,[2],consistently repressed most of the selected proto-oncogenes
same,in vitro cytotoxicity on the leukemic cell population,[1],consistent eradication of the entire leukemic cell population
same,therapeutic index and specificity towards t(4;11)-positive ALL cells,[1],high therapeutic index and a preferred specificity towards targeting t(4;11)-positive ALL cells
same,expression of the selected proto-oncogenes,[3],consistently repressed most of the selected proto-oncogenes
same,effect on healthy hematopoietic bone marrow cells,[4],harmless for healthy hematopoietic bone marrow cells
Nc1ccccc1NC(=O)c1ccc(CNC(=O)OCc2cccnc2)cc1 [MS-275],therapeutic index and specificity towards t(4;11)-positive ALL cells,[1],high therapeutic index and a preferred specificity towards targeting t(4;11)-positive ALL cells
